What was measured:
[1] = test system: breast cancer cells (MDA-MB-231); experiment: MTT cytotoxicity assay, MDA-MB-231; type: cell-based, human; details: 72-h incubation
Method: (§1) The above cells were tested for cytotoxicity to identify the most promising antitumor drug among the synthesized quinazolinone derivatives.
(§2) An MTT assay was used to evaluate the in vitro cytotoxicity of the new compounds. The MTT assay depends on the reduction of soluble 3-([…])-2,5-diphenyl-tetrazolium bromide (MTT) into a blue purple formazan product, mainly by mitochondrial reductase activity inside living cells. […] The cells were suspended in growth medium and plated in 96-well culture plates at a density of 4 × 10^4 cells/well and incubated at 37 °C in a 5% CO2 incubator. […] Each experiment was performed at least 3 times.

[2] = test system: human liver cancer cells (HepG-2); experiment: MTT cytotoxicity assay, HepG-2; type: cell-based; details: 72-h incubation
Method: as §1, §2

[3] = test system: ovarian cancer cells (A2780); experiment: MTT cytotoxicity assay, A2780; type: cell-based, human; details: 72-h incubation
Method: as §1, §2

[4] = test system: human hepatic stellate cells (LX-2); experiment: MTT cytotoxicity assay, LX-2 normal control; type: cell-based; details: 72-h incubation
Method: as §1, §2

[5] = DPPH• free radical scavenging assay; details: for IC50: concentration required to scavenge 50% of the DPPH, 30 min in the dark; for antioxidant activity (in words): DPPH assay
Method: The quinazolinone derivatives were evaluated for their free radical scavenging activity at 320, 160, 80, 40, 20, and 10 µM concentration using the DPPH radical method, with ascorbic acid as the positive control (Table 3).
The antiradical activity of the compounds was estimated according to a slight modification of the procedure reported by Morales and Jimenez-Perez. […] Each sample (100 μL) at a different concentration was added to a freshly prepared solution of 1,1-diphenyl-2-picrylhydrazyl (DPPH•) radical (0.2 mM, 100 μL). The mixtures (200 μL) were placed in a 96-well microplate, shaken vigorously, and then left to stand for 30 min in the dark. Then, absorbance was immediately measured at a wavelength of 517 nm. Vc was used as the standard. The antiradical activity for each compound was determined in the Vc equivalent antioxidant capacity. The DPPH• solution in the presence of ethanol and in the absence of compounds was tested and used as a negative control. […] In all experiments, the samples were analyzed in triplicate, and activity for each compound was presented as the mean value ± SEM and used for evaluation of structure–activity relationships. […] Absorbance was taken at 520 nm using a microplate reader (Tecan, Männedorf, Switzerland).

Row | IC50 [5] [µM] | Compound | IC50 ([1]; Homo sapiens) [µM] | IC50 [2] [µM] | IC50 ([2]; Homo sapiens, HepG2, 72 h) [µM] | IC50 ([3]; Homo sapiens, A2780, 72 h) [µM] | IC50 ([4]; Homo sapiens) [µM] | IC50 [3] [µM] | antioxidant activity (in words) [5] | IC50 [1] [µM] | IC50 [4] [µM]
1 | > 1000 | NCCCN1C(=O)NC(CC(=O)NC(CO)C(N)=O)c2cc(NC(=O)c3ccccn3)ccc21 (centres unmarked) [CA1-f, 3-{4-{2-[(1-amino-3-hydroxy-1-oxopropan-2-yl)amino]-2-oxoethyl}-2-oxo-6-(picolinamido)-3,4-dihydroquinazolin-1(2H)-yl}propan-1-aminium 2,2,2-trifluoroacetate] | 81.3 ± 1.21 | 44.4 ± 2.2 | < 50 | > 100 | 97 ± 4.24 |  |  |  | 
2 | 57.99 ± 0.38 | NCCCN1C(=O)NC(CC(=O)NC(CO)C(N)=O)c2cc(N)ccc21 (centres unmarked) [CA1-7, 4-{2-[(1-amino-3-hydroxy-1-oxopropan-2-yl)amino]-2-oxoethyl}-1-(3-ammoniopropyl)-2-oxo-1,2,3,4-tetrahydroquinazolin-6-aminium 2,2,2-trifluoroacetate] | 90.1 ± 10.9 |  | 59.3 ± 1.85 | 79.8 ± 1.01 | > 100 |  |  |  | 
3 | > 1000 | NCCCN1C(=O)NC(CC(=O)NC(CO)C(N)=O)c2cc(NC(=O)c3cccnc3)ccc21.O=C(O)C(F)(F)F (centres unmarked) [CA1-e, 3-{4-{2-[(1-amino-3-hydroxy-1-oxopropan-2-yl)amino]-2-oxoethyl}-6-(nicotinamido)-2-oxo-3,4-dihydroquinazolin-1(2H)-yl}propan-1-aminium 2,2,2-trifluoroacetate] | 85.7 ± 5.3 | 37.6 ± 5.53 | < 50 | < 40 | > 100 | 22.76 ± 0.22 | no antioxidant activity |  | 
4 | > 1000 | CC(C)CCN1C(=O)NC(CC(=O)NC(CCCN)C(N)=O)c2cc(NC(=O)CCc3cccnc3)ccc21 (centres unmarked) [CA3, 5-amino-4-{2-{1-isopentyl-2-oxo-6-[3-(pyridin-3-yl)propanamido]-1,2,3,4-tetrahydroquinazolin-4-yl}acetamido}-5-oxopentan-1-aminium 2,2,2-trifluoroacetate] | 86 ± 11.1 |  | 64.2 ± 4.69 | 82.9 ± 2.13 | > 100 |  |  |  | 
5 | > 1000 | CN1C(=O)NC(CC(N)=O)c2cc(NC(=O)c3cccnc3)ccc21 (centres unmarked) [CA6-a, N-[4-(2-amino-2-oxoethyl)-1-methyl-2-oxo-1,2,3,4-tetrahydroquinazolin-6-yl]nicotinamide] | > 100 |  | > 100 | > 100 | > 100 |  |  |  | 
6 | > 1000 | NCCCN1C(=O)NC(CC(=O)NC(CO)C(N)=O)c2cc(NC(=O)c3ccc(F)cc3)ccc21 (centres unmarked) [CA1-d, 3-{4-{2-[(1-amino-3-hydroxy-1-oxopropan-2-yl)amino]-2-oxoethyl}-6-(4-fluorobenzamido)-2-oxo-3,4-dihydroquinazolin-1(2H)-yl}propan-1-aminium 2,2,2-trifluoroacetate] | 85.7 ± 4.87 | 49.6 ± 1.91 | < 50 | 88.3 ± 8.56 | > 100 |  |  |  | 
7 | 951 ± 30.6 | CC(C)(NC(=O)CC1NC(=O)N(Cc2ccccc2)c2ccc(NC(=O)COc3ccccc3)cc21)C(N)=O (centres unmarked) [CA4, 2-{2-[1-benzyl-2-oxo-6-(2-phenoxyacetamido)-1,2,3,4-tetrahydroquinazolin-4-yl]acetamido}-2-methylpropanamide] | 87.1 ± 4.47 |  | 72.7 ± 2.76 | 66.2 ± 4.1 | 72.9 ± 0.91 |  |  |  | 
8 | 22.5 ± 0.57 | O=C1O[C@H]([C@@H](O)CO)C(O)=C1O [Vc, ascorbic acid, reference compound] |  |  |  |  |  |  |  |  | 
9 | 387 ± 58.8 | Cc1ccc(C(=O)Nc2ccc3c(c2)C(CC(=O)NC(CO)C(N)=O)NC(=O)N3CCCN)cc1 (centres unmarked) [CA1-c, 3-{4-{2-[(1-amino-3-hydroxy-1-oxopropan-2-yl)amino]-2-oxoethyl}-6-(4-methylbenzamido)-2-oxo-3,4-dihydroquinazolin-1(2H)-yl}propan-1-aminium 2,2,2-trifluoroacetate] | 92.4 ± 4.91 | 48.1 ± 2.34 | < 50 | > 100 | 85.4 ± 1.78 |  |  |  | 
10 | > 1000 | NCCCN1C(=O)NC(CC(=O)NC(CO)C(N)=O)c2cc(NC(=O)CCc3cccnc3)ccc21 (centres unmarked) [CA1-h, 3-{4-{2-[(1-amino-3-hydroxy-1-oxopropan-2-yl)amino]-2-oxoethyl}-2-oxo-6-[3-(pyridin-3-yl)propanamido]-3,4-dihydroquinazolin-1(2H)-yl}propan-1-aminium 2,2,2-trifluoroacetate] | 82.2 ± 11.4 |  | 56.93 ± 0.47 | 86.1 ± 3.73 | 97.5 ± 3.52 |  |  |  | 
11 | > 1000 | NCCCN1C(=O)NC(CC(=O)NC(CO)C(N)=O)c2cc(NC(=O)c3ccccc3)ccc21 (centres unmarked) [CA1-b, 3-{4-{2-[(1-amino-3-hydroxy-1-oxopropan-2-yl)amino]-2-oxoethyl}-6-benzamido-2-oxo-3,4-dihydroquinazolin-1(2H)-yl}propan-1-aminium 2,2,2-trifluoroacetate] | 76.6 ± 2.42 |  | 60.1 ± 3.88 | > 100 | 85.8 ± 4.28 |  |  |  | 
12 | > 1000 | CN1C(=O)N(S(=O)(=O)c2ccccc2F)C(CC(N)=O)c2cc(NS(=O)(=O)c3ccccc3F)ccc21 (centres unmarked) [CA7-b′, 2-{6-[(2-fluorophenyl)sulfonamido]-3-[(2-fluorophenyl)sulfonyl]-1-methyl-2-oxo-1,2,3,4-tetrahydroquinazolin-4-yl}acetamide] | > 100 |  | 95.3 ± 5.47 | > 100 | > 100 |  |  |  | 
13 | > 1000 | NCCCN1C(=O)NC(CC(=O)NC(CO)C(N)=O)c2cc([N+](=O)[O-])ccc21 (centres unmarked) [CA1-6, 3-{4-{2-[(1-amino-3-hydroxy-1-oxopropan-2-yl)amino]-2-oxoethyl}-6-nitro-2-oxo-3,4-dihydroquinazolin-1(2H)-yl}propan-1-aminium 2,2,2-trifluoroacetate] | 81.2 ± 1.54 |  | 52.3 ± 3.45 | 83.2 ± 2.69 | 97.9 ± 15.6 |  |  |  | 
14 | > 1000 | NCCCN1C(=O)NC(CC(=O)NC(CO)C(N)=O)c2cc(NC(=O)COc3ccccc3)ccc21.O=C(O)C(F)(F)F (centres unmarked) [CA1-g, 3-{4-{2-[(1-amino-3-hydroxy-1-oxopropan-2-yl)amino]-2-oxoethyl}-2-oxo-6-(2-phenoxyacetamido)-3,4-dihydroquinazolin-1(2H)-yl}propan-1-aminium 2,2,2-trifluoroacetate] | 82.21 ± 0.59 | 45.4 ± 0.59 | < 50 | < 40 | > 100 | 24.9 ± 7.22 | no antioxidant activity |  | 
15 | > 1000 | NCCCN1C(=O)NC(CC(=O)NC(CO)C(N)=O)c2cc(NC(=O)c3ccncc3)ccc21 (centres unmarked) [CA1-a, 3-{4-{2-[(1-amino-3-hydroxy-1-oxopropan-2-yl)amino]-2-oxoethyl}-6-(isonicotinamido)-2-oxo-3,4-dihydroquinazolin-1(2H)-yl}propan-1-aminium 2,2,2-trifluoroacetate] | 86 ± 2.06 |  | 54.4 ± 3.45 | 80 ± 2.15 | > 100 |  |  |  | 
16 | > 1000 | CN1C(=O)NC(CC(N)=O)c2cc(NC(=O)COc3ccccc3)ccc21 (centres unmarked) [CA6-b, N-[4-(2-amino-2-oxoethyl)-1-methyl-2-oxo-1,2,3,4-tetrahydroquinazolin-6-yl]-2-phenoxyacetamide] | > 100 |  | 88 ± 1.39 | > 100 | > 100 |  |  |  | 
17 | 557 ± 24.5 | NCCCN1C(=O)NC(CC(=O)NC(CO)C(N)=O)c2cc(NC(=O)Cc3cccs3)ccc21 (centres unmarked) [CA1-i, 3-{4-{2-[(1-amino-3-hydroxy-1-oxopropan-2-yl)amino]-2-oxoethyl}-2-oxo-6-[2-(thiophen-2-yl)acetamido]-3,4-dihydroquinazolin-1(2H)-yl}propan-1-aminium 2,2,2-trifluoroacetate] | 89.7 ± 3.79 |  | 49.77 ± 0.12 | < 40 | > 100 | 34.4 ± 5.61 |  |  | 
18 | > 1000 | COc1ccccc1S(=O)(=O)Nc1ccc2c(c1)C(CC(N)=O)NC(=O)N2C (centres unmarked) [CA7-a, 2-{6-[(2-methoxyphenyl)sulfonamido]-1-methyl-2-oxo-1,2,3,4-tetrahydroquinazolin-4-yl}acetamide] | 87.7 ± 2.58 |  | 86.4 ± 3.42 | 82.9 ± 2.68 | > 100 |  |  |  | 

Row | Compound | IC50 [5] [µM] | IC50 ([1]; Homo sapiens) [µM] | IC50 [2] [µM] | IC50 ([2]; Homo sapiens, HepG2, 72 h) [µM] | IC50 ([3]; Homo sapiens, A2780, 72 h) [µM] | IC50 ([4]; Homo sapiens) [µM] | IC50 [3] [µM] | antioxidant activity (in words) [5] | IC50 [1] [µM] | IC50 [4] [µM]
19 | 4-{2-{1-(3-ammoniopropyl)-2-oxo-6-[2-(thiophen-2-yl)acetamido]-1,2,3,4-tetrahydroquinazolin-4-yl}acetamido}-4-carbamoylpiperidin-1-aminium 2,2,2-trifluoroacetate [CA5] | 465 ± 8.61 |  | 65.5 ± 3.16 |  |  |  | 32.3 ± 6.21 |  | 74.81 ± 0.27 | > 100

— article PMC9737648, “Novel Approaches for the Solid-Phase Synthesis of Dihydroquinazoline-2(1H)-One Derivatives and Biological Evaluation as Potential Anticancer Agents” (Molecules, 2022)
